Literature values as cited in patent US9180198B2, “Slow-release cilostazol tablet having an improved elution rate and minimal side effects” (KOREA UNITED PHARM, INC., priority 2009, dated 2015).

Experiments:
blood platelets = blood platelets isolated from a mouse, a rat, a rabbit, a dog and a human
[1] = system: cAMP-PDE (cyclic AMP phosphodiesterase); conditions: in blood platelets and vascular smooth muscles

For O=C1CCc2cc(OCCCCc3nnnn3C3CCCCC3)ccc2N1 [cilostazol, 6-[4-(cyclohexyl-1H-tetrazol-5-yl)butoxy]-3,4-dihydro-2(1H)-quinolinone], the “primary aggregation of blood platelets caused by ADP, epinephrine” value (blood platelets) is listed as “suppress the primary aggregation of blood platelets”, the water solubility is listed as “poorly water-soluble” and the cAMP-PDE activity [1] is listed as “inhibit cAMP-PDE (cyclic AMP phosphodiesterase) activity”.
